# Measured values: US20240376108A1, “SALT AND CRYSTAL FORM OF PYRAZOLE-CONTAINING POLYCYCLIC DERIVATIVE, AND PREPARATION METHOD THEREFOR AND USE THEREOF” (Shanghai Hansoh Biomedical Co., Ltd., priority 2021, published 2024)
# What was measured:
# [1] = Solubility experiment in different media; assay type: physicochemical; conditions: for solubility at 24 h: thermodynamic from solid
# Experimental: The vials were placed on a spin mixer overnight at room temperature. After 24 hours, the sample solution was filtered through a 0.45 μm mixed aqueous fiber membrane. The content of the compound in the filtrate was determined by HPLC. [table]
# [2] = Hygroscopicity experiment (DVS); assay type: physicochemical
# In short: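 Hygroscopic weight gain (%) measured after each salt's crystal form reached dynamic equilibrium with water vapour at various relative humidities, by dynamic vapour sorption.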
# [3] = Pharmacokinetic assay of the salt forms in rats (10 mg/kg); assay type: in vivo; conditions: SD rats
# Experimental: 2.3 Pharmacokinetic assay of the methanesulfonate in rats
# 2.3.1. Study objective: SD rats were used as test animals. The pharmacokinetic behavior of various salt forms of 2-(2-cyano-5-oxo-8-(trifluoromethyl)pyrazolo[1,5-a]pyrido[3,2-e]pyrimidin-4(5H)-yl)-N-(5-fluoropyridin-2-yl)acetamide was studied in rat body (plasma) by orally administration at a dose of 10 mg/kg.
# 2.3.2.4 Administration: After an overnight fast, male SD rats (3 rats per group) were administered p.o. with the test compound at a dose of 10 mg/kg and a volume of 10 mL/kg.
# 2.3.2.5 Sample collection: 0.2 mL of blood was taken from the jugular vein of the rat before administration and at 0, 0.5, 1, 2, 4, 6, 8 and 24 hours after administration. The samples were stored in EDTA-K2 tubes, and centrifuged for 6 minutes at 4° C., 6000 rpm to separate the plasma. The plasma samples were stored at −80° C.
# 1) 160 μL of acetonitrile was added to 40 μL of the plasma sample for precipitation, and then the mixture was centrifuged at 3500×g for 5 to 20 minutes.
# 2) After the above process, 100 μL of the supernatant was taken to analyze the concentration of the test compound by LC/MS/MS.
# 2.3.2.7 Liquid chromatography analysis • Liquid chromatography condition: Shimadzu LC-20AD pump • Mass spectrometry condition: AB Sciex API 4000 mass spectrometer • Chromatographic column: phenomenex Gemiu 5 um C18 50×4.6 mm • Mobile phase: Eluent A was 0.1% formic acid in water, and Eluent B was acetonitrile • Flow rate: 0.8 mL/min • Elution time: 0-4.0 minutes, the eluent is as follows:
# The main parameters of pharmacokinetics were calculated by WinNonlin 8.2.
# [4] = Solid stability experiment (high temperature, high humidity, high temperature and high humidity); assay type: physicochemical
# Experimental: 4.1.1 Experimental objective: To investigate the physical and chemical stability of the crystal form of the compound under the conditions of high temperature, high humidity, as well as high temperature and high humidity, so as to provide a basis for crystal form screening and storage of the crystal form of the compound.
# The content of the salt was determined by HPLC using the external standard method, and the change of relevant substances was calculated by using the chromatographic peak area normalization method.
# [5] = Thermodynamic stability experiment (polymorphism screening of the methanesulfonate); assay type: physicochemical; conditions: pulped in solvents at 35° C. for 24 hours, XRPD
# Experimental: 6.1 Polymorphism screening of the methanesulfonate of compound 2-(2-cyano-5-oxo-8-(trifluoromethyl)pyrazolo[1,5-a]pyrido[3,2-e]pyrimidin-4(5H)-yl)-N-(5-fluoropyridin-2-yl)acetamide
# The mixture was magnetically pulped in a metal bath at 35° C. for 24 hours, and centrifuged. The resulting solid was dried, and the XRPD thereof was determined.
# [6] = Cycle 1, target relative humidity 0.0%, 25° C.
# [7] = Cycle 1, target relative humidity 10.0%, 25° C.
# [8] = Cycle 1, target relative humidity 20.0%, 25° C.
# [9] = Cycle 1, target relative humidity 30.0%, 25° C.
# [10] = Cycle 1, target relative humidity 40.0%, 25° C.
# [11] = Cycle 1, target relative humidity 50.0%, 25° C.
# [12] = Cycle 1, target relative humidity 60.0%, 25° C.
# [13] = Cycle 1, target relative humidity 70.0%, 25° C.
# [14] = Cycle 1, target relative humidity 80.0%, 25° C.
# [15] = Cycle 1, target relative humidity 90.0%, 25° C.
# [16] = Cycle 1, target relative humidity 95.0%, 25° C.
# [17] = Cycle 2, target relative humidity 0.0%, 25° C.
# [18] = Cycle 2, target relative humidity 10.0%, 25° C.
# [19] = Cycle 2, target relative humidity 20.0%, 25° C.
# [20] = Cycle 2, target relative humidity 30.0%, 25° C.
# [21] = Cycle 2, target relative humidity 40.0%, 25° C.
# [22] = Cycle 2, target relative humidity 50.0%, 25° C.
# [23] = Cycle 2, target relative humidity 60.0%, 25° C.
# [24] = Cycle 2, target relative humidity 70.0%, 25° C.
# [25] = Cycle 2, target relative humidity 80.0%, 25° C.
# [26] = Cycle 2, target relative humidity 90.0%, 25° C.
# [27] = Cycle 2, target relative humidity 95.0%, 25° C.
# [28] = High humidity (92.5% RH), Day 7
# [29] = High humidity (92.5% RH), Day 14
# [30] = High temperature (60° C.), Day 7
# [31] = High temperature (60° C.), Day 14
# [32] = High temperature and high humidity (50° C.&75% RH), Day 7
# [33] = High temperature and high humidity (50° C.&75% RH), Day 14
smiles,measurement,setting,value
"CS(=O)(=O)O.N#Cc1cc2n(CC(=O)Nc3ccc(F)cn3)c(=O)c3ccc(C(F)(F)F)nc3n2n1 [Methanesulfonate (crystal form A), 2-(2-cyano-5-oxo-8-(trifluoromethyl)pyrazolo[1,5-a]pyrido[3,2-e]pyrimidin-4(5H)-yl)-N-(5-fluoropyridin-2-yl)acetamide methanesulfonate]",solubility at 24 h,"[1]; aqueous buffer, USP Buffer pH 3, room temperature",4.3 µg/mL
same,solubility at 24 h,"[1]; aqueous buffer, USP Buffer pH 4, room temperature",3.6 µg/mL
same,solubility at 24 h,"[1]; aqueous buffer, USP Buffer pH 5, room temperature",3 µg/mL
same,solubility at 24 h,"[1]; aqueous buffer, USP Buffer pH 6, room temperature",2.4 µg/mL
same,solubility at 24 h,"[1]; aqueous buffer, USP Buffer pH 7, room temperature",2.2 µg/mL
same,solubility at 24 h,"[1]; aqueous buffer, USP Buffer pH 8, room temperature",1.8 µg/mL
same,solubility at 24 h,"[1]; fassgf or other biorelevant, FaSSGF, room temperature",3.3 µg/mL
same,solubility at 24 h,"[1]; pure water, water, H2O, room temperature",1.9 µg/mL
same,solubility in the corresponding media compared with crystal form II of the free base,"[1]; room temperature, 24 hours, buffers, FaSSGF, FaSSIF, FeSSIF, water",increased by more than four times
same,solubility at 24 h,"[1]; simulated gastric fluid, USP Buffer pH 1, room temperature",2.3 µg/mL
same,solubility at 24 h,"[1]; simulated gastric fluid, USP Buffer pH 2, room temperature",2.3 µg/mL
same,solubility at 24 h,"[1]; FaSSIF, room temperature",7.8 µg/mL
same,solubility at 24 h,"[1]; FeSSIF, room temperature",11.3 µg/mL
same,hygroscopicity (Chinese Pharmacopoeia description),"[2]; 25° C., relative humidity 80%",slightly hygroscopic
same,hygroscopic weight gain,[2]; 80% relative humidity,≤ 0.5%
same,"% percentage of mass change, Desorption",[2]; [6],−0.029%
same,"% percentage of mass change, Sorption",[2]; [6],0.000%
same,"% percentage of mass change, Desorption",[2]; [7],0.030%
same,"% percentage of mass change, Sorption",[2]; [7],0.051%
same,"% percentage of mass change, Desorption",[2]; [8],0.082%
same,"% percentage of mass change, Sorption",[2]; [8],0.096%
same,"% percentage of mass change, Desorption",[2]; [9],0.133%
same,"% percentage of mass change, Sorption",[2]; [9],0.138%
same,"% percentage of mass change, Desorption",[2]; [10],0.190%
same,"% percentage of mass change, Sorption",[2]; [10],0.179%
same,"% percentage of mass change, Desorption",[2]; [11],0.253%
same,"% percentage of mass change, Sorption",[2]; [11],0.222%
same,"% percentage of mass change, Desorption",[2]; [12],0.320%
same,"% percentage of mass change, Sorption",[2]; [12],0.272%
same,"% percentage of mass change, Desorption",[2]; [13],0.395%
same,"% percentage of mass change, Sorption",[2]; [13],0.340%
same,"% percentage of mass change, Desorption",[2]; [14],0.502%
same,"% percentage of mass change, Sorption",[2]; [14],0.446%
same,"% percentage of mass change, Desorption",[2]; [15],0.760%
same,"% percentage of mass change, Sorption",[2]; [15],0.700%
same,"% percentage of mass change, Desorption",[2]; [16],1.109%
same,"% percentage of mass change, Sorption",[2]; [16],1.109%
same,"% percentage of mass change, Desorption",[2]; [17],−0.046%
same,"% percentage of mass change, Sorption",[2]; [17],−0.029%
same,"% percentage of mass change, Desorption",[2]; [18],0.014%
same,"% percentage of mass change, Sorption",[2]; [18],0.024%
same,"% percentage of mass change, Desorption",[2]; [19],0.067%
same,"% percentage of mass change, Sorption",[2]; [19],0.073%
same,"% percentage of mass change, Desorption",[2]; [20],0.118%
same,"% percentage of mass change, Sorption",[2]; [20],0.118%
same,"% percentage of mass change, Desorption",[2]; [21],0.177%
same,"% percentage of mass change, Sorption",[2]; [21],0.162%
same,"% percentage of mass change, Desorption",[2]; [22],0.241%
same,"% percentage of mass change, Sorption",[2]; [22],0.209%
same,"% percentage of mass change, Desorption",[2]; [23],0.305%
same,"% percentage of mass change, Sorption",[2]; [23],0.263%
same,"% percentage of mass change, Desorption",[2]; [24],0.378%
same,"% percentage of mass change, Sorption",[2]; [24],0.331%
same,"% percentage of mass change, Desorption",[2]; [25],0.480%
same,"% percentage of mass change, Sorption",[2]; [25],0.433%
same,"% percentage of mass change, Desorption",[2]; [26],0.734%
same,"% percentage of mass change, Sorption",[2]; [26],0.675%
same,"% percentage of mass change, Desorption",[2]; [27],1.076%
same,"% percentage of mass change, Sorption",[2]; [27],1.076%
same,exposure AUC and maximum plasma concentration Cmax compared with the free base,[3]; 10 mg/kg,superior
same,AUC(0-t),"[3]; male, rat, po, p.o. 10 mg/kg, plasma, vehicle 0.5% HPMC, read-out: Area under curve AUC0-t",25800 ng·h/mL
same,MRT inf,"[3]; male, rat, po, p.o. 10 mg/kg, plasma, vehicle 0.5% HPMC, read-out: Average residence time MRT0-∞",4.8 h
same,half-life,"[3]; male, rat, po, p.o. 10 mg/kg, plasma, vehicle 0.5% HPMC, read-out: Half life t1/2 (converted)",162 min
same,Tmax,"[3]; male, rat, po, p.o. 10 mg/kg, plasma, vehicle 0.5% HPMC, read-out: Peak time tmax",4 h
same,Cmax,"[3]; male, rat, po, p.o. 10 mg/kg, plasma, vehicle 0.5% HPMC, read-out: Plasma concentration Cmax",3320 ng/mL
same,solid stability under high temperature and high humidity,"[4]; 50° C.&75% RH, 7 and 14 days",stable
same,solid stability under high temperature,"[4]; 60° C., 7 and 14 days",stable
same,solid stability under high humidity,"[4]; 92.5% RH, 7 and 14 days",stable
same,% increase of total impurities,[4]; [28],<0.1%
same,% maximum increase of single impurity,[4]; [28],<0.1%
same,% increase of total impurities,[4]; [29],<0.1%
same,% maximum increase of single impurity,[4]; [29],<0.1%
same,% increase of total impurities,[4]; [30],<0.2%
same,% maximum increase of single impurity,[4]; [30],<0.1%
same,% increase of total impurities,[4]; [31],<0.1%
same,% maximum increase of single impurity,[4]; [31],<0.1%
same,% increase of total impurities,[4]; [32],<0.1%
same,% maximum increase of single impurity,[4]; [32],<0.1%
same,% increase of total impurities,[4]; [33],<0.1%
same,% maximum increase of single impurity,[4]; [33],<0.1%
same,thermodynamic stability of the crystal form,[5],thermodynamically stable crystal form
